From the supplement of paper PMC10627819

Key:
Settings in all cases: main component drawn
[1] = system: S. aureus Newman; experiment: fitness (endpoint OD595 vs no drug) (fraction); higher = more growth
How it was run: (§1)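 In 384-well plates at 37 °C, cultures began at OD595 0.01 in 30 µl, with 55 µl used for S. pneumoniae. OD595 readings every 30 min for 14 h were corrected by the first reading. Fitness divides the stationary-phase transition optical density by the robust mean of no-drug control wells. The result is capped at 1.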

[2] = system: B. subtilis 168; experiment: as above
How it was run: as §1

[3] = system: S. pneumoniae D39V; experiment: as above
How it was run: as §1

[4] = system: S. aureus Newman; experiment: Bliss interaction score (quartile over a dose matrix) (fitness difference); higher = more antagonism (negative = synergy)
How it was run: (§2)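 The Bliss score is observed fitness minus expected fitness, where the expected value is the product of single-drug fitness values inferred from combination data. Fitness is OD595 at entry into stationary phase normalised to the plate's robust no-drug mean and capped at 1. Scores are reported as quartiles spanning technical, biological and donor/recipient replicates.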

[5] = system: S. aureus DSM 20231; experiment: as above
How it was run: as §2

[6] = system: B. subtilis 168; experiment: as above
How it was run: as §2

[7] = system: S. pneumoniae D39V; experiment: as above
How it was run: as §2
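Wherever Bliss interaction score (quartile over a dose matrix) is given: first quartile when negative (synergy) and third quartile when positive (antagonism).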
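Wherever fitness (endpoint OD595 vs no drug) is given: OD595 on entry to stationary phase over no-drug wells; at most 1.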

CNC(C)C1CCC(N)C(OC2C(N)CC(N)C(OC3OCC(C)(O)C(NC)C3O)C2O)O1 (stereo not given) [Gentamicin] + CN(N=O)C(=O)N[C@@H](C=O)[C@@H](O)[C@H](O)[C@H](O)CO [Streptozotocin]
fitness, [1], one replicate
Settings | first compound 0.375 µg/mL | first compound 0.75 µg/mL | first compound 1.5 µg/mL
partner 0.15 µg/mL | 0.851 | 0.848 | 0.777
partner 0.3 µg/mL | 0.717 | 0.687 | 0.706
partner 0.6 µg/mL | 0.534 | 0.585 | 0.561

fitness
Settings | partner 0.15 µg/mL | partner 0.3 µg/mL | partner 0.6 µg/mL | partner 1.2 µg/mL | partner 2.4 µg/mL | partner 4.8 µg/mL
[1], first compound 0.5 µg/mL | 0.871 | 0.801 | 0.708 | – | – | –
[1], first compound 1 µg/mL | 0.888 | 0.844 | 0.724 | – | – | –
[1], first compound 2 µg/mL | 0.898 | 0.856 | 0.732 | – | – | –
[2], first compound 0.0625 µg/mL | 0.949 | 0.952 | 0.956 | – | – | –
[2], first compound 0.25 µg/mL | 0.161 | 0.164 | 0.12 | – | – | –
[3], first compound 2 µg/mL | – | – | – | 0.892 | 0.949 | 0.914
[3], first compound 4 µg/mL | – | – | – | 0.93 | 0.966 | 0.949
[3], first compound 8 µg/mL | – | – | – | 0.942 | 0.967 | 0.878

Settings | Bliss interaction score
[4] | 0.0523
[5] | -0.0423
[6] | -0.125
[7] | 0.0654

CNC(C)C1CCC(N)C(OC2C(N)CC(N)C(OC3OCC(C)(O)C(NC)C3O)C2O)O1 (stereo not given) [Gentamicin] + CN[C@@H]1[C@H](O)[C@H](NC)[C@H]2O[C@@]3(O)C(=O)C[C@@H](C)O[C@H]3O[C@@H]2[C@H]1O [Spectinomycin]
fitness
Settings | partner 2 µg/mL | partner 4 µg/mL | partner 8 µg/mL | partner 16 µg/mL
[1], first compound 0.375 µg/mL | – | 0.915 | 0.984 | 0.961
[1], first compound 0.5 µg/mL | – | 0.931 | 0.966 | 0.891
[1], first compound 0.75 µg/mL | – | 0.928 | ≥ 1 | 0.95
[1], first compound 1 µg/mL | – | 0.993 | 0.991 | 0.933
[1], first compound 1.5 µg/mL | – | 0.923 | ≥ 1 | 0.96
[1], first compound 2 µg/mL | – | ≥ 1 | ≥ 1 | –
[2], first compound 0.0625 µg/mL | 0.951 | 0.988 | 0.814 | –
[2], first compound 0.25 µg/mL | 0.325 | 0.148 | – | –
[3], first compound 2 µg/mL | – | 0.964 | 0.901 | 0.663
[3], first compound 4 µg/mL | – | 0.914 | 0.807 | 0.643
[3], first compound 8 µg/mL | – | 0.957 | 0.879 | 0.645

fitness, [1], one replicate
Settings | first compound 1 µg/mL | first compound 2 µg/mL | first compound 4 µg/mL
partner 16 µg/mL | – | – | 0.0712
partner 32 µg/mL | 0.507 | 0.101 | 0.0361
partner 64 µg/mL | 0.0654 | 0.0856 | 0.0746

Settings | Bliss interaction score
[4] | 0.0532
[5] | 0.044
[6] | 0.0812
[7] | 0.0871

CNC(C)C1CCC(N)C(OC2C(N)CC(N)C(OC3OCC(C)(O)C(NC)C3O)C2O)O1 (stereo not given) [Gentamicin] + CN[C@@H]1[C@H](O[C@H]2[C@H](O[C@H]3[C@H](O)[C@@H](O)[C@H](N=C(N)N)[C@@H](O)[C@@H]3N=C(N)N)O[C@@H](C)[C@]2(O)C=O)O[C@@H](CO)[C@H](O)[C@H]1O [Streptomycin]
fitness
Settings | partner 1 µg/mL | partner 2 µg/mL | partner 4 µg/mL | partner 8 µg/mL
[1], first compound 0.375 µg/mL | ≥ 1 | 0.929 | – | –
[1], first compound 0.5 µg/mL | 0.957 | 0.953 | 0.978 | –
[1], first compound 0.75 µg/mL | 0.99 | 0.848 | – | –
[1], first compound 1 µg/mL | 0.991 | ≥ 1 | ≥ 1 | –
[1], first compound 2 µg/mL | 0.996 | ≥ 1 | 0.946 | –
[2], first compound 0.125 µg/mL | – | – | – | 0.0351
[2], first compound 0.25 µg/mL | – | 0.0785 | 0.05 | 0.0399
[3], first compound 2 µg/mL | – | 0.918 | 0.922 | 0.899
[3], first compound 4 µg/mL | – | 0.895 | 0.942 | 0.848
[3], first compound 8 µg/mL | – | 0.912 | 0.912 | 0.836

[3], partner 16 µg/mL, one replicate
Settings | fitness
first compound 2 µg/mL | 0.779
first compound 4 µg/mL | 0.736
first compound 8 µg/mL | 0.628

Settings | Bliss interaction score
[4] | 0.0694
[5] | -0.404
[6] | -0.17
[7] | 0.0468

CNC(C)C1CCC(N)C(OC2C(N)CC(N)C(OC3OCC(C)(O)C(NC)C3O)C2O)O1 (stereo not given) [Gentamicin] + COc1c(N2C[C@@H]3CCCN[C@@H]3C2)c(F)cc2c(=O)c(C(=O)O)cn(C3CC3)c12 [Moxifloxacin]
Settings | fitness
[1], first compound 0.375 µg/mL, partner 0.0075 µg/mL | 0.733
[1], first compound 0.375 µg/mL, partner 0.015 µg/mL | 0.515
[1], first compound 0.375 µg/mL, partner 0.03 µg/mL | 0.153
[1], first compound 0.5 µg/mL, partner 0.0075 µg/mL | 0.801
[1], first compound 0.5 µg/mL, partner 0.015 µg/mL | 0.74
[1], first compound 0.75 µg/mL, partner 0.0075 µg/mL | 0.722
[1], first compound 0.75 µg/mL, partner 0.015 µg/mL | 0.544
[1], first compound 0.75 µg/mL, partner 0.03 µg/mL | 0.189
[1], first compound 1 µg/mL, partner 0.0075 µg/mL | 0.841
[1], first compound 1 µg/mL, partner 0.015 µg/mL | 0.776
[1], first compound 1.5 µg/mL, partner 0.015 µg/mL | 0.195
[1], first compound 1.5 µg/mL, partner 0.03 µg/mL | 0.0456
[1], first compound 2 µg/mL, partner 0.0075 µg/mL | 0.879
[1], first compound 2 µg/mL, partner 0.015 µg/mL | 0.777
[2], first compound 0.0625 µg/mL, partner 0.0625 µg/mL | 0.0368
[2], first compound 0.0625 µg/mL, partner 0.125 µg/mL | 0.048
[2], first compound 0.0625 µg/mL, partner 2 µg/mL | 0.0515
[2], first compound 0.0625 µg/mL, partner 4 µg/mL | 0.0389
[2], first compound 0.0625 µg/mL, partner 8 µg/mL | 0.0196
[2], first compound 0.125 µg/mL, partner 0.0625 µg/mL | 0.0582
[2], first compound 0.125 µg/mL, partner 0.125 µg/mL | 0.0573
[2], first compound 0.125 µg/mL, partner 2 µg/mL | 0.0401
[2], first compound 0.125 µg/mL, partner 4 µg/mL | 0.0418
[2], first compound 0.125 µg/mL, partner 8 µg/mL | 0.0222
[2], first compound 0.25 µg/mL, partner 0.0312 µg/mL | 0.0645
[2], first compound 0.25 µg/mL, partner 0.0625 µg/mL | 0.069
[2], first compound 0.25 µg/mL, partner 0.125 µg/mL | 0.069
[2], first compound 0.25 µg/mL, partner 2 µg/mL | 0.0498
[2], first compound 0.25 µg/mL, partner 4 µg/mL | 0.0517
[2], first compound 0.25 µg/mL, partner 8 µg/mL | 0.0301
[3], first compound 2 µg/mL, partner 0.005 µg/mL | ≥ 1
[3], first compound 2 µg/mL, partner 0.01 µg/mL | 0.987
[3], first compound 2 µg/mL, partner 0.02 µg/mL | 0.949
[3], first compound 2 µg/mL, partner 0.0312 µg/mL | 0.0909
[3], first compound 2 µg/mL, partner 0.0625 µg/mL | 0.0352
[3], first compound 2 µg/mL, partner 0.125 µg/mL | 0.0208
[3], first compound 4 µg/mL, partner 0.005 µg/mL | 0.999
[3], first compound 4 µg/mL, partner 0.01 µg/mL | 0.998
[3], first compound 4 µg/mL, partner 0.02 µg/mL | 0.987
[3], first compound 4 µg/mL, partner 0.0312 µg/mL | 0.062
[3], first compound 4 µg/mL, partner 0.0625 µg/mL | 0.0383
[3], first compound 4 µg/mL, partner 0.125 µg/mL | 0.0445
[3], first compound 8 µg/mL, partner 0.005 µg/mL | 0.972
[3], first compound 8 µg/mL, partner 0.01 µg/mL | 0.972
[3], first compound 8 µg/mL, partner 0.02 µg/mL | 0.925
[3], first compound 8 µg/mL, partner 0.0312 µg/mL | 0.0628
[3], first compound 8 µg/mL, partner 0.0625 µg/mL | 0.0435
[3], first compound 8 µg/mL, partner 0.125 µg/mL | 0.0398

Settings | Bliss interaction score
[4] | 0.0666
[5] | 0.0845
[6] | 0.0561
[7] | -0.0566

CNC(C)C1CCC(N)C(OC2C(N)CC(N)C(OC3OCC(C)(O)C(NC)C3O)C2O)O1 (stereo not given) [Gentamicin] + COc1ccc(C[C@H](N)C(=O)N[C@H]2[C@@H](O)[C@H](n3cnc4c(N(C)C)ncnc43)O[C@@H]2CO)cc1 [Puromycin]
fitness, [1], one replicate
Settings | first compound 0.375 µg/mL | first compound 0.75 µg/mL | first compound 1.5 µg/mL
partner 0.39 µg/mL | ≥ 1 | ≥ 1 | 0.973
partner 0.78 µg/mL | ≥ 1 | ≥ 1 | ≥ 1
partner 1.56 µg/mL | ≥ 1 | ≥ 1 | ≥ 1

Settings | fitness
[1], first compound 0.5 µg/mL, partner 0.39 µg/mL | 0.979
[1], first compound 0.5 µg/mL, partner 0.78 µg/mL | ≥ 1
[1], first compound 0.5 µg/mL, partner 1.56 µg/mL | ≥ 1
[1], first compound 1 µg/mL, partner 0.39 µg/mL | ≥ 1
[1], first compound 1 µg/mL, partner 0.78 µg/mL | ≥ 1
[1], first compound 1 µg/mL, partner 1.56 µg/mL | ≥ 1
[1], first compound 2 µg/mL, partner 0.39 µg/mL | 0.994
[1], first compound 2 µg/mL, partner 0.78 µg/mL | ≥ 1
[1], first compound 2 µg/mL, partner 1.56 µg/mL | ≥ 1
[2], first compound 0.0625 µg/mL, partner 0.39 µg/mL | 0.889
[2], first compound 0.25 µg/mL, partner 0.39 µg/mL | 0.0531
[2], first compound 0.25 µg/mL, partner 0.78 µg/mL | 0.0448
[2], first compound 0.25 µg/mL, partner 1.56 µg/mL | 0.0402
[3], first compound 2 µg/mL, partner 1 µg/mL | 0.955
[3], first compound 2 µg/mL, partner 2 µg/mL | 0.915
[3], first compound 4 µg/mL, partner 1 µg/mL | 0.984
[3], first compound 8 µg/mL, partner 1 µg/mL | 0.906
[3], first compound 8 µg/mL, partner 4 µg/mL | 0.19

Settings | Bliss interaction score
[4] | 0.0455
[5] | -0.278
[6] | -0.204
[7] | -0.289
